Counter-ions that a name gives are not always drawn.
Each molecule was assayed on MTT (mouse pheochromocytoma) (assay: IC50 of cell viability (ATP content)). Conditions: (24 or 48 h).
Outline: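 After overnight culture at 37°C, 5% CO2 in white 1536-well plates, MTT mouse pheochromocytoma cells were given 23 nl of library compound in DMSO by pintool across 8 concentrations, spanning final 0.5 nM to 46 µM. Following 24 or 48 hrs, CellTiter-Glo luminescence was read after 15 minutes and normalised against positive-control (100%) and DMSO (0%) wells. A four-parameter logistic model provided the IC50.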
For `O=P([O-])(O)C(Sc1ccc(Cl)cc1)P(=O)([O-])O` [TILUDRONATE DISODIUM], the “IC50 of cell viability” value was > 46 µM.
`COC1C\C(C[N+](C)(C)C1)=C(/C2=CC=CS2)C3=CC=CS3` (stereo unspecified) [TIMEPIDIUM BROMIDE] was tested, and the “IC50 of cell viability” value was > 46 µM.
In the case of `O=C(O)[C@@H]1CSCN1` [TIMONACICUM], the “IC50 of cell viability” value is reported as > 46 µM.
In the case of `Clc1ccc(C(Cn2ccnc2)OCc2ccsc2Cl)c(Cl)c1` (stereo unspecified) [TIOCONAZOLE], the “IC50 of cell viability” value is reported as > 46 µM.
For `CC(S)C(=O)NCC(=O)O` (stereo unspecified) [TIOPRONIN], the “IC50 of cell viability” value was > 46 µM.
`CN/C(=N/C#N)NCCSCc1csc(N=C(N)N)n1` [TIOTIDINE] was tested, and the “IC50 of cell viability” value was > 46 µM.
`C[N+]1(C)[C@@H]2CC(OC(=O)C(O)(c3cccs3)c3cccs3)C[C@H]1[C@@H]1O[C@@H]12` (stereo partly specified) [TIOTROPIUM BROMIDE MONOHYDRATE] was tested, and the “IC50 of cell viability” value was > 46 µM.
`O=c1oc2cc(O)ccc2s1` [TIOXOLONE] was tested, and the “IC50 of cell viability” value was > 46 µM.
`CN1CCC\C(C1)=C(/C2=CC=CS2)C3=CC=CS3` [TIPEPIDINE HIBENZATE] was tested, and the “IC50 of cell viability” value was > 46 µM.
In the case of `CCC[C@]1(CCc2ccccc2)CC(O)=C([C@H](CC)c2cccc(N[S+](=O)([O-])c3ccc(C(F)(F)F)cn3)c2)C(=O)O1` [TIPRANAVIR], the “IC50 of cell viability” value is reported as > 46 µM.
`COC1=C(OC)C=C(CNCC(O)COC2=CC=C3NC(=O)\C=C/C3=C2)C=C1` (stereo unspecified) [TOBORINONE] was tested, and the “IC50 of cell viability” value was > 46 µM.
For `Cc1c(C)c2c(c(C)c1OC(=O)c1cccnc1)CC[C@@](C)(CCC[C@H](C)CCC[C@H](C)CCCC(C)C)O2` [TOCOPHEROL NICOTINATE], the “IC50 of cell viability” value was > 46 µM.
With `Cc1c(C)c2c(c(C)c1OC(=O)CCC(=O)O)CC[C@@](C)(CCC[C@H](C)CCC[C@H](C)CCCC(C)C)O2` [TOCOPHERYL SUCCINATE] the “IC50 of cell viability” value was > 46 µM.
In the case of `CC1=C(/C=C/C(C)=C/C=C/C(C)=C/C(=O)Oc2c(C)c(C)c3c(c2C)CC[C@@](C)(CCC[C@H](C)CCC[C@H](C)CCCC(C)C)O3)C(C)(C)CCC1` [TOCORETINATE], the “IC50 of cell viability” value is reported as > 46 µM.
For `CCC1\C(=N/N=C(C2=CC(=C(OC)C=C2)OC)\C3=C1C=C(OC)C(=C3)OC)C` (stereo unspecified) [TOFISOPAM], the “IC50 of cell viability” value was > 46 µM.
For `Cc1ccccc1OCC(O)CNCCOc1ccc(C(N)=O)cc1` (stereo unspecified) [TOLAMOLOLUM], the “IC50 of cell viability” value was > 46 µM.
With `Cc1ccc([S+](=O)([O-])NC(=O)NN2CCCCCC2)cc1` [TOLAZAMIDE] the “IC50 of cell viability” value was > 46 µM.
In the case of `CCCCNC(=O)N[S+](=O)([O-])c1ccc(C)cc1` [TOLBUTAMIDE], the “IC50 of cell viability” value is reported as > 46 µM.
`Cc1ccc(C(=O)c2cc(O)c(O)c([N+](=O)[O-])c2)cc1` [TOLCAPONE] was tested, and the “IC50 of cell viability” value was > 46 µM.
In the case of `Cc1c(Cl)cccc1Nc1ccccc1C(=O)O` [TOLFENAMIC ACID], the “IC50 of cell viability” value is reported as > 46 µM.
For `Cc1cccc(N(C)C(=S)Oc2ccc3c(c2)CCC3)c1` [TOLINDATE], the “IC50 of cell viability” value was > 46 µM.
`Cc1ccc(S(=O)(=O)NC(=O)NC2CCCC2)cc1` [TOLPENTAMIDUM] was tested, and the “IC50 of cell viability” value was > 46 µM.
`Cc1ccc(C(=O)C(C)CN2CCCCC2)cc1.Cl` (stereo unspecified) [TOLPERISONE HYDROCHLORIDE] was tested, and the “IC50 of cell viability” value was > 46 µM.
With `Cc1ccccc1C(=O)Nc1ccc(C(=O)N2CCCC(O)c3cc(Cl)ccc32)c(C)c1` (stereo unspecified) [TOLVAPTAN] the “IC50 of cell viability” value was > 46 µM.
With `CC1CC[C@@]2(NC1)OC1CC3C4CC[C@@H]5CC(O)CC[C@@]5(C)C4CC[C@]3(C)C1C2C.Cl` (stereo partly specified) [TOMATIDINE HYDROCHLORIDE] the “IC50 of cell viability” value was > 46 µM.
With `CC1(C)OC2CO[C@]3(CO[S+](N)(=O)[O-])OC(C)(C)OC3C2O1` (stereo partly specified) [TOPIRAMATE] the “IC50 of cell viability” value was > 46 µM.
For `Cc1ccc([S+](=O)([O-])NC(=O)NC(C)Cc2ccccc2)cc1` (stereo unspecified) [TOSIFENUM], the “IC50 of cell viability” value was > 46 µM.
With `NC1CCN(c2nc3c(cc2F)c(=O)c(C(=O)O)cn3-c2ccc(F)cc2F)C1` (stereo unspecified) [TOSUFLOXACIN TOSILATE] the “IC50 of cell viability” value was > 46 µM.
`CCOC(=O)C(CCc1ccccc1)NC(C)C(=O)N1C(C(=O)O)CC2CCCCC21` (stereo unspecified) [TRANDOLAPRIL] was tested, and the “IC50 of cell viability” value was > 46 µM.
`O=C(O)/C=C(/CC(=O)O)C(=O)O` [TRANS-ACONITIC ACID] was tested, and the “IC50 of cell viability” value was > 46 µM.
For `[H][C@]1(\C=C(/Cl)Cl)[C@]([H])(C(=O)OCC2=C(F)C(F)=CC(F)=C2F)C1(C)C` [TRANSFLUTHRIN], the “IC50 of cell viability” value was > 46 µM.
With `CC(=O)O[C@H]1CC[C@H]2[C@@H]3CCC4=CC(=O)CCC4=C3C=C[C@]12C` [TRENBOLONE ACETATE] the “IC50 of cell viability” value was > 46 µM.
`C[S+](=O)([O-])OCC(O)C(O)CO[S+](C)(=O)[O-]` (stereo unspecified) [TREOSULFAN] was tested, and the “IC50 of cell viability” value was > 46 µM.
For `CCOc1cc(OCC)c(C(=O)CCC(=O)O)cc1OCC` [TREPIBUTONE], the “IC50 of cell viability” value was > 46 µM.
With `CC1=C(/C=C/C(C)=C/C=C/C(C)=C/C(=O)O)C(C)(C)CCC1` [TRETINOIN] the “IC50 of cell viability” value was > 46 µM.
In the case of `C[C@@]12CC(O)[C@]3(F)C(CCC/4=C/C(=O)/C=C\[C@@]34C)C1CC(O)[C@@]2(O)C(=O)CO` (stereo partly specified) [TRIAMCINOLONE], the “IC50 of cell viability” value is reported as > 46 µM.
`CC1=NN=C2C\N=C(\C3=C(Cl)C=CC=C3)C4=C(C=CC(=C4)Cl)[N]12` [TRIAZOLAM] was tested, and the “IC50 of cell viability” value was > 46 µM.
In the case of `O=C(Nc1ccc(Br)cc1)c1cc(Br)cc(Br)c1O` [TRIBROMSALAN], the “IC50 of cell viability” value is reported as > 46 µM.
With `CCOC(=O)c1cccc(N)c1` [TRICAINE METHANESULFONATE] the “IC50 of cell viability” value was > 46 µM.
`O[C@H]1[C@H]2[C@H](O)CCCN2C[C@H]1O` [TRIDOLGOSIRUM] was tested, and the “IC50 of cell viability” value was > 46 µM.
With `OCCOCCOCCO` [TRIETHYLENE GLYCOL] the “IC50 of cell viability” value was > 46 µM.
In the case of `CC(CN(C)C)CN1c2ccccc2Sc2ccc(C(F)(F)F)cc21` (stereo unspecified) [TRIFLUOMEPRAZINE MALEATE], the “IC50 of cell viability” value is reported as > 46 µM.
In the case of `CN(C)CCCN1c2ccccc2Sc2ccc(C(F)(F)F)cc21.Cl` [TRIFLUPROMAZINE HYDROCHLORIDE], the “IC50 of cell viability” value is reported as > 46 µM.
In the case of `Cl.OC(CCN1CCCCC1)(c1ccccc1)C1CCCCC1` (stereo unspecified) [TRIHEXYPHENIDYL HYDROCHLORIDE], the “IC50 of cell viability” value is reported as > 46 µM.
In the case of `C[C@]12CC[C@H]3[C@@H](CC[C@@]45O[C@@H]4C(=O)C(C#N)C[C@]35C)[C@@H]1CC[C@@H]2O` (stereo partly specified) [TRILOSTANE], the “IC50 of cell viability” value is reported as > 46 µM.
With `CCC(COC(=O)c1cc(OC)c(OC)c(OC)c1)(c1ccccc1)N(C)C.O=C(O)/C=C\C(=O)O` (stereo unspecified) [TRIMEBUTINE MALEATE] the “IC50 of cell viability” value was > 46 µM.
In the case of `CC12CCC(C[N+](C)(CCC[N+](C)(C)C)C1)C2(C)C` (stereo unspecified) [TRIMETHIDINII METHOSULFAS], the “IC50 of cell viability” value is reported as > 46 µM.
`COc1cc(C(=O)N2CCOCC2)cc(OC)c1OC` [TRIMETOZINUM] was tested, and the “IC50 of cell viability” value was > 46 µM.
For `FC(F)(F)c1ccccc1-n1ccnc1` [TRIM], the “IC50 of cell viability” value was > 46 µM.
`CN(C)CCN(Cc1ccccc1)c1ccccn1.O=C(O)CC(O)(CC(=O)O)C(=O)O` [TRIPELENNAMINE CITRATE] was tested, and the “IC50 of cell viability” value was > 46 µM.
For `CC(C)C[C@H](NC(=O)[C@@H](Cc1c[nH]c2ccccc12)NC(=O)[C@@H](Cc1ccc(O)cc1)NC(=O)[C@@H](CO)NC(=O)[C@@H](Cc1c[nH]c2ccccc12)NC(=O)C(Cc1c[nH]cn1)NC(=O)C1CCC(=O)N1)C(=O)N[C@@H](CCCNC(=N)N)C(=O)N1CCC[C@@H]1C(=O)NCC(N)=O` (stereo partly specified) [TRIPTORELIN PAMOATE], the “IC50 of cell viability” value was > 46 µM.

— the supplement of paper PMC3974653
